Tests used:
[1] = system: rat cerebral infarction model; experiment: Middle cerebral artery thread occlusion model (cerebral infarction); type: in vivo; conditions: 50 μg caudal vein
Source text: Eight- to ten-week-old male Wister rats were used. Rats were anesthetized by isoflurane inhalation while warming on a keep-warm mat with a body temperature monitor. After confirming that the anesthetic effect was sufficient, cervical hair was removed to expose the skin. The surgical site was sterilized with alcohol. Along the cervical median line, the skin was incised with a scalpel. After the right external carotid artery was ligated and the right common carotid artery was pressurized to temporarily block the blood flow, an occlusion thread made of #4 monofilament nylon with siliconized tip was inserted into the right external carotid artery toward the right internal carotid artery. While releasing the pressure on the common carotid artery, the occlusion thread was advanced along with the blood stream from the internal carotid artery up to the bifurcation to the middle cerebral artery so that the blood flow was blocked. Furthermore, the thread around the right common carotid artery was ligated to completely block the blood flow for 50 minutes. After removing the occlusion thread and loosening the ligature at the common carotid artery, the skin was sutured to complete the surgery.
50 μg of synthetic peptide (1-44) was administered at the caudal vein. The first administration was carried out 6 hours after the production of cerebral infarction. Then, the peptide was administered five times at 24-hour intervals (five days in total).
After 14 days of the final drug administration, the rats were given sufficiently deep anesthesia, and placed in a container filled with carbon dioxide. The complete arrest of heartbeat and breathing was confirmed. Brains were excised and immediately fixed by immersion in buffered 10% formalin. After paraffin embedding, thin sections were prepared and stained with hematoxylin-eosin. Four sections were prepared from each brain at 1.92 mm anterior to bregma (1.92), 0.60 mm anterior to bregma (0.60), 1.56 mm posterior to bregma (−1.56), and 3.24 mm posterior to bregma (−3.24), and the areas were compared.

[2] = system: skin flap made on the back of a rat; experiment: Skin flap (skin damage) model on the back of rats; type: in vivo; conditions: for area of wound section (necrosed section) in the skin flap: FIG. 25
Procedure: Experimental animals used were SD rats (male, eight weeks old). After sufficiently deep anesthesia by isoflurane inhalation, a rectangular skin incision of 3 cm width×7 cm length was made on the back. The cephalic side was left uncut, and the skin was thoroughly detached from the subcutaneous tissues. The three incised sides were sutured to the surrounding skin using #4 silk suture, and protected with Tegaderm (3M) to prevent bacterial infection.
The full-length mouse HMGB1 (100 μg/administration/day) produced in HEK293 and chemically synthesized HMGB1 peptide (amino acids 1 to 44; 50 μg/administration/day) were diluted to 200 μl with phosphate buffer and administered to rats via the caudal vein. The first administration was performed 6 hours after the surgery, and then the agents were administered every 24 hours a total of five times. Phosphate-buffered physiological saline was administered as a negative control. Tegaderm was removed after one week, and the wound region was observed weekly to measure the areas of necrosis and ulceration.
Experimental animals used were 15 SD rats (male, eight weeks old) per group. After sufficient anesthesia by isoflurane inhalation, a rectangular skin incision of 3 cm width×7 cm length was made on the back. The cephalic side was left uncut, and the skin was thoroughly detached from the subcutaneous tissues. The incised three sides were sutured to the surrounding skin using #4 silk suture, and protected with Tegaderm (3M) to prevent bacterial infection.
Chemically synthesized HMGB1 peptide (amino acids 1-44; 50 μg/administration/day) or HMGB1 peptide (amino acids 17-25; 50 μg/administration/day) was diluted to 200 μl with phosphate buffer and administered to the rats with experimental wound. The first administration was performed 6 hours after the surgery, and then the agents were administered every 24 hours a total of five times. Phosphate-buffered physiological saline was administered as a negative control. Tegaderm was removed after one week, and the wound was observed two weeks after the wound production. Uncured areas (ulceration and necrosis) were measured.

## synthetic peptide (1-44): chemically synthesized HMGB1 peptide, amino acids 1 to 44, mouse HMGB1 sequence (MGKGDPKKPRGKMSSYAFFVQTCREEHKKKHPDASVNFSEFSKK; UniProt P63158 1-44, looked up, fragment)
[1]; five administrations, versus negative control (PBS), FIG. 17
  infarction area (% ratio to normal brain area in the right brain), four sections: significantly reduced as compared to the negative control group
[1]; N=10, first 6 h after infarction, five times at 24-hour intervals, 14 days after final administration, negative control 8 of 11
  animals showing expansion of the infarction to the cortex: only one mouse showed expansion of the infarction to the cortex
[1]; N=10, five administrations, 14 days after final administration
  animals in which the infarction was limited in the basal nucleus: 9
[2]; after four weeks and later, versus the other two groups
  area of wound section (necrosed section) in the skin flap: a further shrinking effect was observed
[2]; one to three weeks after the skin flap was made, versus negative control
  area of wound section (necrosed section) in the skin flap: effect of shrinking the wound section was confirmed
[2]; one week after surgery, caudal vein, five administrations, full-length 100 μg, peptide 50 μg/administration/day, negative control four of five
  rats in which skin necrosis developed: one of five rats
[2]; seven weeks after surgery, same regimen, negative control four of five, FIG. 24
  rats with severe skin contracture: two of five rats
[2]; two weeks after skin flap production, 50 μg/administration/day, five administrations, 15 SD rats per group, FIG. 26
  ratio of the uncured area relative to the area of the whole skin flap, average: 14.1%

Reference: patent publication US10550165B2, “Peptide for inducing regeneration of tissue and use thereof” (STEMRIM INC., priority 2011, dated 2020)
